Experiment: Antagonist activity at human CCR2 in THP1 cells assessed as inhibition of MCP1-induced chemotaxis

| SMILES | IC50 [nM] |
| --- | --- |
| COc1ccc(CN2CC[C@@H](NC(=O)CNC(=O)c3cccc(C(F)(F)F)c3)C2)cc1 | 35 |
| CC(NC(=O)c1cccc(C(F)(F)F)c1)C(=O)N[C@@H]1CCN(Cc2ccc(Cl)cc2)C1 (stereo partly drawn) | 22000 |
| Nc1ccc(OC(F)(F)F)cc1C(=O)NCC(=O)N[C@@H]1CCN(Cc2ccc(Cl)cc2)C1 | 43 |
| Nc1ccc([N+](=O)[O-])cc1C(=O)NCC(=O)N[C@@H]1CCN(Cc2ccc(Cl)cc2)C1 | 43 |
| COc1cc(CN2CC[C@@H](NC(=O)CNC(=O)c3cccc(C(F)(F)F)c3)C2)ccc1O | 77 |
| O=C(CNC(=O)c1cccc(OC(F)(F)F)c1)N[C@@H]1CCN(Cc2ccc(Cl)cc2)C1 | 360 |
| O=C(CNC(=O)c1cccc(C(F)(F)F)c1)N[C@@H]1CCN(Cc2ccc(Cl)cc2)C1 [(R)-N-(2-(1-(4-chlorobenzyl)pyrrolidin-3-ylamino)-2-oxoethyl)-3-(trifluoromethyl)benzamide] | 24 |
| CSc1ccc(CN2CC[C@@H](NC(=O)CNC(=O)c3cccc(C(F)(F)F)c3)C2)cc1 | 21 |
| O=C(CNC(=O)c1cccc(C(F)(F)F)c1)N[C@@H]1CCN(Cc2ccccc2-c2ccc3ccccc3c2)C1 | 74 |
| Cc1ccccc1CN1CC[C@@H](NC(=O)CNC(=O)c2cccc(C(F)(F)F)c2)C1 | 127 |
| O=C(CNC(=O)c1cccc(C(F)(F)F)c1)N[C@@H]1CCN(Cc2ccccc2)C1 | 418 |
| O=C(CNC(=O)c1cccc(C(F)(F)F)c1)N[C@@H]1CCN(Cc2ccccc2Cl)C1 | 418 |
| Nc1cc(CN2CC[C@@H](NC(=O)CNC(=O)c3cc(C(F)(F)F)ccc3N)C2)ccc1O | 18 |
| O=C(CCNC(=O)c1cccc(C(F)(F)F)c1)N[C@@H]1CCN(Cc2ccc(Cl)cc2)C1 | 10000 |
| O=C(CNC(=O)c1cccc(C(F)(F)F)c1)N[C@@H]1CCN(Cc2ccc(Br)cc2)C1 | 21 |
| O=C(CNC(=O)c1cccc(C(F)(F)F)c1)N[C@@H]1CCN(Cc2ccc(F)cc2)C1 | 121 |
| O=C(CNC(=O)c1cccc([N+](=O)[O-])c1)N[C@@H]1CCN(Cc2ccc(Cl)cc2)C1 | 445 |
| O=C(CNC(=O)c1cccc(C(F)(F)F)c1)N[C@@H]1CCN(Cc2ccc(OC(F)(F)F)cc2)C1 | 103 |
| Nc1ccc(I)cc1C(=O)NCC(=O)N[C@@H]1CCN(Cc2ccc(Cl)cc2)C1 | 22 |
| O=C(CNC(=O)c1cccc(Br)c1)N[C@@H]1CCN(Cc2ccc(Cl)cc2)C1 | 473 |

Now those with a lower IC50, led by results:

| IC50 [nM] | SMILES |
| --- | --- |
| 11 | Nc1cc(CN2CC[C@@H](NC(=O)CNC(=O)c3cc(C(F)(F)F)ccc3N)C2)ccc1Cl |
| 5.5 | O=C(CNC(=O)c1cccc(C(F)(F)F)c1)N[C@@H]1CCN(Cc2ccc(O)cc2)C1 |
| 12 | Cc1ccc(CN2CC[C@@H](NC(=O)CNC(=O)c3cc(C(F)(F)F)ccc3N)C2)cc1N |
| 3.6 | Nc1ccc(C(F)(F)F)cc1C(=O)NCC(=O)N[C@@H]1CCN(Cc2ccc(Cl)cc2)C1 |
| 11 | COc1ccc(CN2CC[C@@H](NC(=O)CNC(=O)c3cc(C(F)(F)F)ccc3N)C2)cc1 |
| 16 | Cc1ccc(CN2CC[C@@H](NC(=O)CNC(=O)c3cccc(C(F)(F)F)c3)C2)c(C)c1 [(R)-N-(2-(1-(2,4-dimethylbenzyl)pyrrolidin-3-ylamino)-2-oxoethyl)-3-(trifluoromethyl)benzamide] |
| 8.8 | COc1ccc(CN2CC[C@@H](NC(=O)CNC(=O)c3cc(C(F)(F)F)ccc3N)C2)cc1N |
| 0.83 | Cc1ccc(CN2CC[C@@H](NC(=O)CNC(=O)c3cc(C(F)(F)F)ccc3N)C2)c(C)c1 |
| 9.2 | COc1ccc(CN2CC[C@@H](NC(=O)CNC(=O)c3cc(C(F)(F)F)ccc3N)C2)cc1O |
| 12.4 | Cc1ccc(CN2CC[C@@H](NC(=O)CNC(=O)c3cccc(C(F)(F)F)c3)C2)cc1 |
| 14 | COc1cc(CN2CC[C@@H](NC(=O)CNC(=O)c3cc(C(F)(F)F)ccc3N)C2)ccc1O |
| 3.9 | C=Cc1ccc(CN2CC[C@@H](NC(=O)CNC(=O)c3cc(C(F)(F)F)ccc3N)C2)cc1 |
| 0.89 | CCc1ccc(CN2CC[C@@H](NC(=O)CNC(=O)c3cc(C(F)(F)F)ccc3N)C2)cc1 |
| 2.6 | Nc1ccc(C(F)(F)F)cc1C(=O)NCC(=O)N[C@@H]1CCN(Cc2ccc(Br)cc2)C1 |
| 9.4 | CCc1ccc(CN2CC[C@@H](NC(=O)CNC(=O)c3cccc(C(F)(F)F)c3)C2)cc1 |
| 6.2 | C=Cc1ccc(CN2CC[C@@H](NC(=O)CNC(=O)c3cccc(C(F)(F)F)c3)C2)cc1 |
| 5.1 | Nc1ccc(C(F)(F)F)cc1C(=O)NCC(=O)N[C@@H]1CCN(Cc2ccc(O)cc2)C1 |
| 3.1 | Cc1ccc(CN2CC[C@@H](NC(=O)CNC(=O)c3cc(C(F)(F)F)ccc3N)C2)cc1 |
